In patent US20250250292A1, “DELIVERY SYSTEM TO TARGET GRAM-NEGATIVE BACTERIA” (priority 2022, published 2025):
In brackets after ≈: the same amount, converted by molar mass. Like-named read-outs stand apart in the source and are kept apart here.

Legend:
Format in all cases: cell-based
MRC5 fibroblast cells = test: Cel Titer Glo cytotoxicity in MRC5 cells; details: Homo sapiens
Method: In order to facilitate development of the TPP containing antibiotics, a series of TPP linkers were prepared and tested for their toxicity in MRC5 cells. This library of linkers are shown below: The toxicity of these linkers in MRC5 cells after a 72 hour incubation.

[1] = tested on: clinical isolates of Staphylococcus aureus (NR-49120, NR-46413); test: Resazurin blue (alamarBlue) bacterial cell viability assay, gram-positive model; details: clinical strains of Staphylococcus aureus
Method: (§1) To compare the efficacy of pleuromutilin and the pleuromulin-TPP^+ ester pro-drug (AP-8-159B) gram-negative and gram-positive pathogen model system were used. Thus, Escherichia coli (BL21(DE3) from New England Biolabs) was used as a model strain for gram-negative bacteria and clinical isolates of Staphylococcus aureus were used as the model system for gram-positive bacteria (NR-49120, NR-46413 obtained from BEI Resources). All strains were cultured at 37° C. overnight in Luria Bertani (LB) (BD 244610). For testing the drug sensitivity, bacteria were grown in RPMI medium containing 10% fetal bovine serum or human serum.
A resazurin blue assay (alamarBlue®) (Toté et al., 2009; Costa et al., 2021; Wannigama et al., 2019; Travnickova et al., 2019) was used to evaluate bacterial cell viability. Resazurin (7-hydroxy-10-oxidophenoxazin-10-ium-3-one, sodium) is a blue fluorogenic dye used as a redox indicator in cell viability and proliferation assays for bacteria, yeast, or mammalian cells. […] This simple fluorometric-based assay rapidly quantifies metabolically active bacterial cells. […] The positive control used evaluated media alone without bacterial culture to confirm there was no change from blue to red. The negative control evaluated the bacteria culture alone without added compound to provide a 100% growth control (red). […] Changes in fluorescence were measured on the Biotek Synergy 2 plate reader after an 8-hour incubation at 37° C. using an excitation filter range of 530-570 nm and an emission filter range of 590-620 nm. An increase in fluorescence intensity corresponded to bacterial growth and was quantified by comparison with untreated bacterial control samples. The ratio of (TThreshold (untreated)/TThreshold (prodrug-treated)) (where T=time) was used to quantify the change in bacterial growth. To minimize inter-experimental variations, TThreshold values were corrected by subtracting untreated control cultures to reach minimum detectable fluorescence. […]

[2] = tested on: Escherichia coli (BL21(DE3)); test: Resazurin blue (alamarBlue) bacterial cell viability assay, gram-negative model; details: for cytotoxic effect: E. coli BL21 (DE3)
Method: as §1
A resazurin blue assay (alamarBlue®) (Toté et al., 2009; Costa et al., 2021; Wannigama et al., 2019; Travnickova et al., 2019) was used to evaluate bacterial cell viability. Resazurin (7-hydroxy-10-oxidophenoxazin-10-ium-3-one, sodium) is a blue fluorogenic dye used as a redox indicator in cell viability and proliferation assays for bacteria, yeast, or mammalian cells. The resazurin assay protocol is based on the reduction of oxidized non-fluorescent blue resazurin to a red fluorescent dye (resorufin), where NADPH dehydrogenase, without being bound by theory, is probably responsible for the transference of electrons from NADPH+H^+ to resazurin (Costa et al., 2021). The amount of resorufin produced is directly proportional to the number of living cells. This simple fluorometric-based assay rapidly quantifies metabolically active bacterial cells. Two controls were added to the plate to confirm the correct response from the resazurin. The positive control used evaluated media alone without bacterial culture to confirm there was no change from blue to red. The negative control evaluated the bacteria culture alone without added compound to provide a 100% growth control (red). Thus, resazurin sodium salt (Sigma R7017) was added to pleuromutilin or pleuromutilin-TPP+ prodrug treated bacterial samples at a final concentration of 0.02% and incubated for 8 hours at 37° C. Changes in fluorescence were measured on the Biotek Synergy 2 plate reader after an 8-hour incubation at 37° C. using an excitation filter range of 530-570 nm and an emission filter range of 590-620 nm. An increase in fluorescence intensity corresponded to bacterial growth and was quantified by comparison with untreated bacterial control samples. The ratio of (TThreshold (untreated)/TThreshold (prodrug-treated)) (where T=time) was used to quantify the change in bacterial growth. To minimize inter-experimental variations, TThreshold values were corrected by subtracting untreated control cultures to reach minimum detectable fluorescence. At the end of the experiment, wells were visualized for changes in color from blue (inviable bacteria) to red (viable bacteria) and a picture was taken.

Escherichia coli = test: Antibacterial in vitro activity (MIC)
Method: (§2) These compounds were tested in an E. coli and Klebsiella strain to determine the change in OD600 as a function of concentration (FIG. 5, E. coli; FIG. 6, Klebsiella). The antibacterial activity of the compounds was further analyzed and activity was determine a variety of different bacterial strains.

Streptococcus pneumoniae = test: Antibacterial in vitro activity (MIC)
Method: as §2

Enterococcus faecium = test: Antibacterial in vitro activity (MIC); details: isolate D0459, Clinical isolate
Method: as §2

Haemophilus influenzae = test: Antibacterial in vitro activity (MIC)
Method: as §2

Proteus mirabilis = test: Antibacterial in vitro activity (MIC)
Method: as §2

Salmonella typhimurium = test: Antibacterial in vitro activity (MIC); details: Salmonella enterica, ATCC 13311 / TYPHIMURIUM; isolate D0109, ATCC13311
Method: as §2

Streptococcus agalactiae = test: Antibacterial in vitro activity (MIC); details: isolate B0790, Clinical isolate
Method: as §2

Citrobacter freundii = test: Antibacterial in vitro activity (MIC)
Method: as §2

Streptococcus pyogenes = test: Antibacterial in vitro activity (MIC); details: isolate B0780, Clinical isolate
Method: as §2

Klebsiella pneumoniae = test: Antibacterial in vitro activity (MIC)
Method: as §2

Enterobacter cloacae = test: Antibacterial in vitro activity (MIC)
Method: as §2

Acinetobacter baumannii = test: Antibacterial in vitro activity (MIC)
Method: as §2

Pseudomonas aeruginosa = test: Antibacterial in vitro activity (MIC)
Method: as §2

Staphylococcus aureus = test: Antibacterial in vitro activity (MIC)
Method: as §2

[3] = Table 1, TPP+ linkers, MRC5 cells, 72-hour incubation
[4] = Table 2, cytotoxicity in MRC5 fibroblast cells
[5] = ATCC25922, isolate B0001, ATCC 25922, read-out: MIC
[6] = isolate B0159, Efflux pump deficient (ΔtolC)
[7] = isolate B0429, Efflux pump deficient (ΔacrAB)
[8] = isolate B1098, Clinical isolate, read-out: MIC
[9] = isolate D0120, Clinical isolate, read-out: MIC
[10] = isolate B0078, Clinical isolate
[11] = isolate B0415, Clinical isolate
[12] = ATCC49247, isolate B0035, ATCC 49247
[13] = isolate B0126, Clinical isolate
[14] = Proteus mirabilis, isolate D1301, Clinical isolate, read-out: MIC
[15] = isolate D1300, Clinical isolate
[16] = isolate B0271, Clinical isolate
[17] = ATCC11228, isolate B0032, ATCC 11228
[18] = ATCC29519, isolate D0033, ATCC 29519
[19] = ATCC43816, isolate B0305, ATCC 43816
[20] = isolate D1089, Clinical isolate
[21] = isolate D1090, Clinical isolate
[22] = ATCC15473, isolate B0473, ATCC 15473
[23] = isolate B1062, Clinical isolate
[24] = ATCC27853, isolate B0015, ATCC 27853
[25] = ATCC29511, isolate B0016, ATCC 29511
[26] = isolate B0367, Clinical isolate
[27] = ATCC49951, isolate B0009, ATCC 49951
[28] = isolate B0029, Clinical isolate

O=C(OCCOCCO)c1ccc([P+](c2ccccc2)(c2ccccc2)c2ccccc2)cc1 [AP-8-99-2]
IC50 (MRC5 fibroblast cells; [3]): > 90 µM

O=C(O)c1ccc(C[P+](c2ccccc2)(c2ccccc2)c2ccccc2)cc1 [AP-8-108, (4-Carboxybenzyl)triphenylphosphonium bromide]
IC50 (MRC5 fibroblast cells; [3]): > 90 µM | IC50 (MRC5 fibroblast cells; [4]): > 90 µM | cytotoxic effect [1]: no cytotoxic effect | cytotoxic effect [2]: no cytotoxic effect | MIC (Escherichia coli; [5]): > 32 µg/mL | MIC (Escherichia coli; [6]): > 32 µg/mL | MIC (Escherichia coli; [7]): > 32 µg/mL | MIC (Escherichia coli; [8]): > 32 µg/mL | MIC (Escherichia coli; [9]): > 32 µg/mL

Oc1ccc(C[P+](c2ccccc2)(c2ccccc2)c2ccccc2)cc1 [AP-8-109]
IC50 (MRC5 fibroblast cells; [3]): 60.6 µM

Fc1cc(C[P+](c2ccccc2)(c2ccccc2)c2ccccc2)ccc1Cl [BI-182]
IC50 (MRC5 fibroblast cells; [3]): > 90 µM

C[C@H]1c2cccc(O)c2C(=O)C2=C(O)[C@]3(O)C(=O)C(C(N)=O)=C(O)[C@@H](N(C)C)[C@@H]3[C@@H](O)[C@@H]21 [Doxycycline]
MIC (Streptococcus pneumoniae; [10]): 16 µg/mL (≈ 36 µM) | MIC (Streptococcus pneumoniae; [11]): 0.12 µg/mL (≈ 0.27 µM) | MIC (Enterococcus faecium): 32 µg/mL (≈ 72 µM) | MIC (Haemophilus influenzae; [12]): 0.12 µg/mL (≈ 0.27 µM) | MIC (Haemophilus influenzae; [13]): 0.12 µg/mL (≈ 0.27 µM) | MIC (Proteus mirabilis; [14]): 32 µg/mL (≈ 72 µM) | MIC (Proteus mirabilis; [15]): 32 µg/mL (≈ 72 µM) | MIC (Salmonella typhimurium): 0.5 µg/mL (≈ 1.13 µM) | MIC (Streptococcus agalactiae): 0.12 µg/mL (≈ 0.27 µM) | MIC (Citrobacter freundii; [16]): 8 µg/mL (≈ 18 µM) | MIC (Citrobacter freundii; isolate B0286, AKH Vienna): 2 µg/mL (≈ 4.5 µM) | MIC (Streptococcus pyogenes): 16 µg/mL (≈ 36 µM) | MIC (Klebsiella pneumoniae; [17]): 0.25 µg/mL (≈ 0.563 µM) | MIC (Klebsiella pneumoniae; [18]): 1 µg/mL (≈ 2.25 µM) | MIC (Klebsiella pneumoniae; [19]): 1 µg/mL (≈ 2.25 µM) | MIC (Enterobacter cloacae; [20]): > 32 µg/mL | MIC (Enterobacter cloacae; [21]): 2 µg/mL (≈ 4.5 µM) | MIC (Acinetobacter baumannii; [22]): 0.5 µg/mL (≈ 1.13 µM) | MIC (Acinetobacter baumannii; [23]): ≤ 0.03 µg/mL | MIC (Escherichia coli; [5]): 0.5 µg/mL (≈ 1.13 µM) | MIC (Escherichia coli; [6]): 0.25 µg/mL (≈ 0.563 µM) | MIC (Escherichia coli; [7]): 0.25 µg/mL (≈ 0.563 µM) | MIC (Escherichia coli; [8]): 16 µg/mL (≈ 36 µM) | MIC (Escherichia coli; [9]): 2 µg/mL (≈ 4.5 µM) | MIC (Pseudomonas aeruginosa; [24]): 16 µg/mL (≈ 36 µM) | MIC (Pseudomonas aeruginosa; [25]): 32 µg/mL (≈ 72 µM) | MIC (Pseudomonas aeruginosa; [26]): > 32 µg/mL | MIC (Staphylococcus aureus; [27]): 0.12 µg/mL (≈ 0.27 µM) | MIC (Staphylococcus aureus; [28]): 8 µg/mL (≈ 18 µM) | MIC (Staphylococcus aureus; isolate B1325, Clinical isolates): 4 µg/mL (≈ 9 µM)

CC(C)C[C@H](NC(=O)[C@H](Cc1ccccc1)NC(=O)c1cnccn1)B(O)O [PS-341, bortezomib]
IC50 (MRC5 fibroblast cells; [3]): 0.007 µM | IC50 (MRC5 fibroblast cells; [4]): 0.0003 µM

C=C[C@]1(C)C[C@@H](OC(=O)CO)[C@]2(C)[C@H](C)CC[C@]3(CCC(=O)[C@H]32)[C@@H](C)[C@@H]1O [Pleuromutilin]
IC50 (MRC5 fibroblast cells; [4]): > 90 µM | cytotoxic effect [1]: potent cytotoxic agents | cytotoxicity potency ([2]; E Coli BL21 (DE3)): 25 µg/mL | cytotoxic effect [2]: much less cytotoxic | MIC (Streptococcus pneumoniae; [10]): 4 µg/mL (≈ 10.6 µM) | MIC (Streptococcus pneumoniae; [11]): 1 µg/mL (≈ 2.64 µM) | MIC (Haemophilus influenzae; [12]): 4 µg/mL (≈ 10.6 µM) | MIC (Haemophilus influenzae; [13]): 1 µg/mL (≈ 2.64 µM) | MIC (Proteus mirabilis; [14]): > 128 µg/mL | MIC (Proteus mirabilis; [15]): >128 µg/mL | MIC (Salmonella typhimurium): 128 µg/mL (≈ 338 µM) | MIC (Citrobacter freundii; [16]): > 128 µg/mL | MIC (Citrobacter freundii; isolate B0286, AKH Vienna): > 128 µg/mL | MIC (Klebsiella pneumoniae; [17]): > 128 µg/mL | MIC (Klebsiella pneumoniae; [18]): > 128 µg/mL | MIC (Klebsiella pneumoniae; [19]): > 128 µg/mL | MIC (Enterobacter cloacae; [20]): > 128 µg/mL | MIC (Enterobacter cloacae; [21]): > 128 µg/mL | MIC (Acinetobacter baumannii; [22]): > 128 µg/mL | MIC (Acinetobacter baumannii; [23]): > 128 µg/mL | MIC (Escherichia coli; [5]): 128 µg/mL (≈ 338 µM) | MIC (Escherichia coli; isolate B0158, AcrAB-TolC efflux pump WT, read-out: MIC): > 128 µg/mL | MIC (Escherichia coli; [6]): 0.5 µg/mL (≈ 1.32 µM) | MIC (Escherichia coli; [7]): 32 µg/mL (≈ 84.5 µM) | MIC (Escherichia coli; [8]): > 128 µg/mL | MIC (Escherichia coli; [9]): > 128 µg/mL | MIC (Pseudomonas aeruginosa; [24]): > 128 µg/mL | MIC (Pseudomonas aeruginosa; [25]): > 128 µg/mL | MIC (Pseudomonas aeruginosa; [26]): > 128 µg/mL | MIC (Staphylococcus aureus; [27]): 1 µg/mL (≈ 2.64 µM) | MIC (Staphylococcus aureus; [28]): 1 µg/mL (≈ 2.64 µM)
